Assay results taken from the supplement of paper PMC10307832.

Columns and labels:
Experiment in all cases: relative viability (nuclei count vs DMSO), 5 days (fraction); higher = more cells survive
Dovitinib = compound: CN1CCN(c2ccc3nc(-c4c(N)c5c(F)cccc5[nH]c4=O)[nH]c3c2)CC1 [Dovitinib]
Procedure, shortened: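 Viability was defined as treated-well nuclei divided by vehicle-well nuclei, with the median taken over replicate plates. Cells from lung cancer lines sat overnight at 37 °C in 1536-well plates, received five √10-spaced library-drug doses by pinning on vehicle-anchored plates, and grew 5 days without medium change before one-step fixation, permeabilisation and Hoechst staining, 4× imaging and MetaXpress nuclear counts. Only plates with control CV under 25% and at least one doubling were kept.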

Dovitinib + Bortezomib = compound: CN1CCN(c2ccc3nc(-c4c(N)c5c(F)cccc5[nH]c4=O)[nH]c3c2)CC1 [Dovitinib] + CC(C)C[C@H](NC(=O)[C@H](Cc1ccccc1)NC(=O)c1cnccn1)B(O)O [Bortezomib] (partner 0.002 µM)
Procedure, shortened: (§1)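 For relative viability, nuclei counts in treated wells were divided by those in vehicle wells. Lung cancer cell lines had been pin-tool dosed in 1536-well plates the day after seeding and cultured for 5 days, then fixed and stained in one step (final 0.05% Triton X-100, 1% formaldehyde, 1 ug/ml Hoechst) and imaged at 4×. Doses were one drug alone or a fixed anchor-drug dose plus five library-drug doses (not always all listed) in √10 steps, and values are duplicate-plate medians.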

Dovitinib + Navitoclax = compound: CN1CCN(c2ccc3nc(-c4c(N)c5c(F)cccc5[nH]c4=O)[nH]c3c2)CC1 [Dovitinib] + CC1(C)CCC(c2ccc(Cl)cc2)=C(CN2CCN(c3ccc(C(=O)NS(=O)(=O)c4ccc(N[C@H](CCN5CCOCC5)CSc5ccccc5)c(S(=O)(=O)C(F)(F)F)c4)cc3)CC2)C1 [Navitoclax] (partner 0.5 µM)
Procedure, shortened: as §1

Dovitinib + Foretinib = compound: CN1CCN(c2ccc3nc(-c4c(N)c5c(F)cccc5[nH]c4=O)[nH]c3c2)CC1 [Dovitinib] + COc1cc2c(Oc3ccc(NC(=O)C4(C(=O)Nc5ccc(F)cc5)CC4)cc3F)ccnc2cc1OCCCN1CCOCC1 [Foretinib] (partner 0.25 µM)
Procedure, shortened: as §1

Dovitinib + Lapatinib = compound: CN1CCN(c2ccc3nc(-c4c(N)c5c(F)cccc5[nH]c4=O)[nH]c3c2)CC1 [Dovitinib] + CS(=O)(=O)CCNCc1ccc(-c2ccc3ncnc(Nc4ccc(OCc5cccc(F)c5)c(Cl)c4)c3c2)o1 [Lapatinib] (partner 2 µM)
Procedure, shortened: as §1

Dovitinib + Pictilisib = compound: CN1CCN(c2ccc3nc(-c4c(N)c5c(F)cccc5[nH]c4=O)[nH]c3c2)CC1 [Dovitinib] + CS(=O)(=O)N1CCN(Cc2cc3nc(-c4cccc5[nH]ncc45)nc(N4CCOCC4)c3s2)CC1 [Pictilisib] (partner 1 µM)
Procedure, shortened: as §1

Dovitinib + Crizotinib = compound: CN1CCN(c2ccc3nc(-c4c(N)c5c(F)cccc5[nH]c4=O)[nH]c3c2)CC1 [Dovitinib] + C[C@@H](Oc1cc(-c2cnn(C3CCNCC3)c2)cnc1N)c1c(Cl)ccc(F)c1Cl [Crizotinib] (partner 1 µM)
Procedure, shortened: as §1

Dovitinib + Linsitinib = compound: CN1CCN(c2ccc3nc(-c4c(N)c5c(F)cccc5[nH]c4=O)[nH]c3c2)CC1 [Dovitinib] + C[C@]1(O)C[C@@H](c2nc(-c3ccc4ccc(-c5ccccc5)nc4c3)c3c(N)nccn32)C1 [Linsitinib] (partner 1 µM)
Procedure, shortened: as §1

Dovitinib + Alpelisib = compound: CN1CCN(c2ccc3nc(-c4c(N)c5c(F)cccc5[nH]c4=O)[nH]c3c2)CC1 [Dovitinib] + Cc1nc(NC(=O)N2CCC[C@H]2C(N)=O)sc1-c1ccnc(C(C)(C)C(F)(F)F)c1 [Alpelisib] (partner 2 µM)
Procedure, shortened: as §1

Dovitinib + Vorinostat = compound: CN1CCN(c2ccc3nc(-c4c(N)c5c(F)cccc5[nH]c4=O)[nH]c3c2)CC1 [Dovitinib] + O=C(CCCCCCC(=O)Nc1ccccc1)NO [Vorinostat] (partner 1 µM)
Procedure, shortened: as §1

Dovitinib + Olaparib = compound: CN1CCN(c2ccc3nc(-c4c(N)c5c(F)cccc5[nH]c4=O)[nH]c3c2)CC1 [Dovitinib] + O=C(c1cc(Cc2n[nH]c(=O)c3ccccc23)ccc1F)N1CCN(C(=O)C2CC2)CC1 [Olaparib] (partner 8 µM)
Procedure, shortened: as §1

IA-LM
relative viability (Dovitinib; 0.02 µM): 0.864
relative viability (Dovitinib; 0.06325 µM): 1.02
relative viability (Dovitinib; 0.2 µM): 0.962
relative viability (Dovitinib; 0.6325 µM): 0.989
relative viability (Dovitinib; 2 µM): 0.873
relative viability (Dovitinib + Bortezomib; first compound 0.02 µM): 0.787
relative viability (Dovitinib + Bortezomib; first compound 0.06325 µM): 1.01
relative viability (Dovitinib + Bortezomib; first compound 0.2 µM): 0.666
relative viability (Dovitinib + Bortezomib; first compound 0.6325 µM): 0.837
relative viability (Dovitinib + Bortezomib; first compound 2 µM): 0.772
relative viability (Dovitinib + Navitoclax; first compound 0.02 µM): 0.778
relative viability (Dovitinib + Navitoclax; first compound 0.06325 µM): 0.961
relative viability (Dovitinib + Navitoclax; first compound 0.2 µM): 0.814
relative viability (Dovitinib + Navitoclax; first compound 0.6325 µM): 0.704
relative viability (Dovitinib + Navitoclax; first compound 2 µM): 0.76
relative viability (Dovitinib + Foretinib; first compound 0.02 µM): 1.2
relative viability (Dovitinib + Foretinib; first compound 0.06325 µM): 1.19
relative viability (Dovitinib + Foretinib; first compound 0.2 µM): 1.05
relative viability (Dovitinib + Foretinib; first compound 0.6325 µM): 1.24
relative viability (Dovitinib + Foretinib; first compound 2 µM): 1.12
relative viability (Dovitinib + Lapatinib; first compound 0.02 µM): 1.07
relative viability (Dovitinib + Lapatinib; first compound 0.06325 µM): 0.693
relative viability (Dovitinib + Lapatinib; first compound 0.2 µM): 0.709
relative viability (Dovitinib + Lapatinib; first compound 0.6325 µM): 0.648
relative viability (Dovitinib + Lapatinib; first compound 2 µM): 0.821
relative viability (Dovitinib + Pictilisib; first compound 0.02 µM): 0.412
relative viability (Dovitinib + Pictilisib; first compound 0.06325 µM): 0.333
relative viability (Dovitinib + Pictilisib; first compound 0.2 µM): 0.481
relative viability (Dovitinib + Pictilisib; first compound 0.6325 µM): 0.279
relative viability (Dovitinib + Pictilisib; first compound 2 µM): 0.337
relative viability (Dovitinib + Crizotinib; first compound 0.02 µM): 0.678
relative viability (Dovitinib + Crizotinib; first compound 0.06325 µM): 0.838
relative viability (Dovitinib + Crizotinib; first compound 0.2 µM): 0.73
relative viability (Dovitinib + Crizotinib; first compound 0.6325 µM): 0.722
relative viability (Dovitinib + Crizotinib; first compound 2 µM): 0.682
relative viability (Dovitinib + Linsitinib; first compound 0.02 µM): 0.602
relative viability (Dovitinib + Linsitinib; first compound 0.06325 µM): 0.544
relative viability (Dovitinib + Linsitinib; first compound 0.2 µM): 0.627
relative viability (Dovitinib + Linsitinib; first compound 0.6325 µM): 0.614
relative viability (Dovitinib + Linsitinib; first compound 2 µM): 0.547
relative viability (Dovitinib + Alpelisib; first compound 0.02 µM): 0.732
relative viability (Dovitinib + Alpelisib; first compound 0.06325 µM): 0.78
relative viability (Dovitinib + Alpelisib; first compound 0.2 µM): 0.854
relative viability (Dovitinib + Alpelisib; first compound 0.6325 µM): 0.911
relative viability (Dovitinib + Alpelisib; first compound 2 µM): 0.765
relative viability (Dovitinib + Vorinostat; first compound 0.02 µM): 0.962
relative viability (Dovitinib + Vorinostat; first compound 0.06325 µM): 0.883
relative viability (Dovitinib + Vorinostat; first compound 0.2 µM): 1.13
relative viability (Dovitinib + Vorinostat; first compound 0.6325 µM): 0.973
relative viability (Dovitinib + Vorinostat; first compound 2 µM): 0.897
relative viability (Dovitinib + Olaparib; first compound 0.02 µM): 0.723
relative viability (Dovitinib + Olaparib; first compound 0.06325 µM): 0.812
relative viability (Dovitinib + Olaparib; first compound 0.2 µM): 0.916
relative viability (Dovitinib + Olaparib; first compound 0.6325 µM): 0.795
relative viability (Dovitinib + Olaparib; first compound 2 µM): 0.845
